{"source": "patent EP2251003A2", "about": "“Ophthalmic Compositions for the Re-epithelialization, Healing and Disinfection of the Eye Tissues” (priority 2009, dated 2010)", "origin": "cited, not measured here", "key": {"[1]": {"conditions": "1.5 g/kg/day administered for 90 days"}, "[2]": {"conditions": "in vivo"}, "[3]": {"tested_on": "cornea of the rabbit", "conditions": "administered to the cornea of the rabbit"}, "[4]": {"conditions": "1 g/kg/day, rat"}, "[5]": {"tested_on": "fibroblast", "conditions": "in vitro"}, "[6]": {"tested_on": "eye of the rabbit", "conditions": "5% ophthalmic solution, topical application"}, "[7]": {"conditions": "eyedrops containing dexpanthenol"}, "[8]": {"conditions": "rat, more recent studies"}, "[9]": {"tested_on": "eye of the rabbit", "conditions": "topical"}, "[10]": {"conditions": "mouse"}, "[11]": {"conditions": "topical use, reported in the literature"}, "[12]": {"conditions": "50 mg/kg/day administered orally to rats, subchronic"}}, "note": "Where two headings read alike, the source gives them in different places."}
{"smiles": "CS(C)(=O)=O", "note": "[MSM, Methylsulphonylmethane]", "values": [{"measurement": "toxic effect", "setting": "[1]", "value": "do not have any toxic effect"}, {"measurement": "absorption and urinary elimination", "setting": "[2]", "value": "rapid absorption and rapid urinary elimination"}, {"measurement": "intraocular absorption of other substances", "setting": "[3]", "value": "promotes intraocular absorption of disodium edetate and other substances"}, {"measurement": "toxic effects on fertility, gestation and neonatal development", "setting": "[4]", "value": "absence of toxic effects"}]}
{"smiles": "CC(C)(CO)[C@@H](O)C(=O)NCCCO", "note": "[dexpanthenol]", "values": [{"measurement": "fibroblast proliferation", "setting": "[5]", "value": "activation of fibroblast proliferation"}, {"measurement": "extent and time of re-epithelialisation of the corneal endothelium", "setting": "[6]", "value": "significantly stimulated"}, {"measurement": "ocular tolerability", "setting": "[7]", "value": "excellent"}]}
{"smiles": "N=C(N)c1ccc(OCCCCCCOc2ccc(C(=N)N)cc2)cc1", "note": "[hexamidine diisethionate]", "values": [{"measurement": "oral acute toxicity, expressed as LD50", "setting": "[8]", "value": 750, "unit": "mg/kg"}, {"measurement": "eye irritation", "setting": "[9]; aqueous solutions containing 0.10-0.11%", "value": "slight, transient irritation"}, {"measurement": "eye irritation", "setting": "[9]; concentration of 0.050%", "value": "no reaction"}, {"measurement": "intraperit. LD50", "setting": "[10]; intraperitoneal", "value": 1060, "unit": "mg/kg"}, {"measurement": "oral LD Lo", "setting": "[10]; oral", "value": 100, "unit": "mg/kg"}, {"measurement": "oral LD50", "setting": "[10]; oral, Toxicology and Applied Pharmacology 1975", "value": 280, "unit": "mg/kg"}, {"measurement": "oral acute toxicity, expressed as LD50", "setting": "[10]; oral, more recent studies", "value": "710 to 2500", "unit": "mg/kg"}, {"measurement": "cases of sensitisation", "setting": "[11]", "value": "nine cases out of millions of subjects"}, {"measurement": "toxic effect", "setting": "[12]", "value": "did not show any toxic effect"}]}
